Assay [1] has as its system E006AA cells. The assay can be described thus: Caspase-3 (DEVDase) activity assay. Type of assay: cell-based, human. On the procedure:
(§1) Caspase-3 (DEVDase) activity assay: PCa cell lysates prepared in NP40 lysis buffer were incubated with DEVD-AFC (caspase-3 substrate) at 37° C. for 90 min in caspase activity assay buffer (50 mM HEPES pH 7.4, 150 mM NaCl, 1% CHAPS, 1 mM EDTA, 1 mM DTT, 50% glycerol). Fluorescence intensity was detected using a Synergy microplate reader at excitation and emission wavelengths of 400 nm and 508 nm, respectively. Arbitrary fluorescence units were normalized with protein content of cell lysates and represented as fold change compared to control groups.

Assay [2] deals with E006AA cells. Put plainly: Mitochondrial ROS production, MitoSOX dye, flow cytometry. In kind it is cell-based, human. A general note: A flow cytometer gives signals particle by particle.
In assay [3] the test system is CC promoter activity in E006AA cells. The assay can be described thus: Cytochrome c (CYCS) promoter reporter (luciferase) assay. Conditions: CYCS-Luc transfected cells, 24 hrs. Type of assay: cell-based, human. On the procedure: Cytochrome c (CYCS) promoter reporter assay: CYCS promoter reporter clone and empty pLightSwitch vector were purchased from SwitchGear Genomics, Menlo Park, Calif. (Cat #S721763). The reporter construct was prepared by cloning −1000 bp of CYCS promoter from the transcription initiation site. Plasmids were transformed in DH5a E. Coli strain and were isolated using a Zymo Plasmid MidiPrep kit (Zymo research, cat #D4200). The Nrf1 binding site in the p-CYCS-SwichGear-Luc construct was deleted using a QuickChange II XL site-directed mutagenesis kit (Agilent Technologies, Wilmington, Del. Cat #200521). LNCaP and E006AA cells were seeded in 96 well plates and transfected with either pLightSwitch empty vector or CYCS promoter reporter clones using a lipofectamine 3000 transfection kit (ThermoFisher Scientific, Waltham, Mass.). Cells were harvested after 48 hrs. Luciferase activity assay was performed using LightSwitch Assay Reagent (SwitchGear Genomics, Menlo Park, Calif. Cat #LS010).

Assay [4] relates to p-Drp1^S616 in E006AA cells. The assay can be described thus: Immunoblot analysis of p-Drp1^S616 and Drp1. Particulars: AA PCa cells; c-Myc I 75 μM, NF-κB I 50 μM, AKT Act 5 μM. In kind it is cell-based, human. The procedure: (§2) Immunoblotting: Immunoblotting was performed as described previously. Protein lysates were prepared using a lysis in NP-40 buffer (50 mM Tris-HCl pH 7.4, 150 mM NaCl, 1 mM EDTA, 1 mM EGTA, 1% NP-40) supplemented with protease and phosphatase inhibitor cocktail. Protein content was quantified using a micro BCA protein estimation kit (Thermo Scientific, Waltham, Mass.; Cat #23235). Protein samples were resolved on 4-20% Criterion gels, transferred on nitrocellulose membranes (BioRad, Hercules, Calif.) and subjected to immunoblotting. Membranes were blocked in 5% fat free dry milk (Blotto, Santa Cruz, Dallas, Tex.; Cat #sc-2324) prepared in PBS-T (Tween-20) and incubated overnight in primary antibodies (1:1000 dilution) at 4° C. with continuous shaking. After washing with PBS-T, membranes were incubated in HRP conjugated anti-mouse or anti-rabbit secondary antibody at room temperature for 1 hr. After washing with PBS-T, proteins were detected using Clarity chemiluminescent reagent (BioRad, Hercules, Calif.; Cat #1705061) and X-Ray films (ASI, Fort Lauderdale, Fla.; Cat #XR1570). Membranes were stripped using stripping buffer and probed with HRP conjugated beta-actin antibody to ensure equal loading of proteins.

In assay [5] the test system is E006AA cells. The assay can be described thus: Immunoblot analysis of CC, cleaved PARP and cleaved caspase-3 in whole cell lysates. Type of assay: cell-based, human. Particulars: for CC expression: combined treatment with DOC (10 nM, 24 hrs), c-Myc I 75 μM, NF-κB I 50 μM, AKT Act 5 μM. The procedure:
as §2

Assay [6] deals with E006AA cells. Put plainly: Clonogenic assay. Type of assay: cell-based, human. The procedure: Clonogenic assay: PCa cells were seeded in each well of 6 well cell culture plates. Cells were treated and plates were incubated in a CO2 cell culture incubator for 6 more days. Colonies were fixed in 10% formalin first and stained with 0.5% crystal violet solution. Plates were dried and pictures were captured using a Gel documentation system and Coomassie blue filter (Bio Rad, Hercules, Calif.).

For assay [7], the system named is E006AA hT xenografts. The assay can be described thus: Human PCa xenograft study. In kind it is in vivo, SCID mice. Particulars: 3 weeks.
Excerpt: Human PCa xenograft study: SCID (C.B-Igh-1^b/IcrTac-Prkdc^[…]) mice (6 weeks old) were purchased from an in house colony maintained by Roswell Park Laboratory Animal Shared Resource. Animal protocols were approved by the Roswell Park Institutional Animal Care and Use Committee (IACUC protocol #1306M). E006AA hT cells (80% confluency) were harvested and live cells quantified. Harvested cells were washed and resuspended in serum-free DMEM/F-12 (1:1) mix. Four ×10^6 E006AA hT cells were mixed with Matrigel (1:1) and injected subcutaneously in the right and left flanks of each mouse. When xenograft tumors reached 5 mm in diameter (22 days post injection), mice were randomly divided into 6 groups of 4 mice. First group received 100 μl Neobee M5 oil (vehicle) and 100 μl normal saline each twice weekly. Second group received 100 μl Neobee M5 oil and DOC (6 mg/kg bw) twice weekly. Third group received 10058-F4 (20 mg/kg bw) and DOC (6 mg/kg bw) twice weekly. Fourth group received JSH-23 (3 mg/kg bw) and DOC (6 mg/kg bw) twice weekly. Fifth group received 10058-F4 (20 mg/kg bw) and normal saline twice weekly. Sixth group received JSH-23 (3 mg/kg bw) and normal saline twice weekly. All treatments were administered for 3 weeks. Mice were euthanized, tumors were excised and flash frozen in liquid nitrogen. The tissue lysates were used for caspase-3 activity and Western blotting of CC, cleaved PARP, and cleaved caspase-3 proteins.
as §2, §1
(Xenograft models place foreign cells or tissue in a host animal.)

The subject of assay [8] is RC-77 T/E cells. Put plainly: Cell death, DEVDase activity and CC expression in a second AA PCa cell line. Type of assay: cell-based, human. Particulars: both AA PCa cell lines; for CC expression / caspase-3 activity: DOC with or without inhibitor, 24 hrs; for cell death: not as effective as in CA PCa cells. On the procedure:
as §2
Cell viability assay: PCa cells (5×10^4 cells/well) were seeded on 6-well cell culture plates and incubated with DOC (1-20 nM) for 24 hrs. Floating and attached cells were collected using trypsinization. Live and dead cells were counted under a light microscope using a trypan blue exclusion assay.
as §1

Where [9] appears, read: combined treatment with DOC (24 hrs).
[10] abbreviates: in combination with DOC (6 mg/kg bw) twice weekly.
The mark [11] stands for this setting: inhibitor alone, 10058-F4 20 mg/kg bw or JSH-23 3 mg/kg bw twice weekly.

With “bisperoxovanadium 5-hydroxipyridine [AKT activator]”, the caspase-3 activation result is reported as “only a modest increase” in assay [1] (agent alone) and “increased caspase-3 activation” in assay [1] (setting [9]). Besides, the MitoROS production entry in assay [2] (agent alone) and in assay [2] (in combination with DOC) was “MitoROS production” in each case. For the same compound, the “CYCS promoter activity (luciferase)” value in assay [3] is on record as “increased the CYCS promoter activity”. In addition, the “levels of p-Drp1^S616” value in assay [4] is on record as “increased the levels of p-Drp1^S616”. The PARP cleavage entry is listed as “only a modest increase” in assay [5] (agent alone) and “PARP cleavage” in assay [5] (setting [9]). The CC expression result in assay [5] was “Increased CC expression”. For the same compound, the “colony forming ability (CFA)” value in assay [6] (with DOC) and in assay [6] (without DOC) was “reduced the CFA” throughout.

In the case of `Cc1ccc(NCCCc2ccccc2)c(N)c1` [NF-κB inhibitor, JSH-23], the figures for the caspase-3 activation result in assay [1] (agent alone) and in assay [1] (setting [9]) were “only a modest increase” and “increased caspase-3 activation”, respectively. For the same compound, the MitoROS production result in assay [2] (agent alone) and in assay [2] (in combination with DOC) was “MitoROS production” each time. Also, the “CC expression in xenografts” value in assay [7] (setting [10]) is “further upregulated”; in assay [7] (setting [11]), “induced CC expression”. Besides, the “PARP cleavage in xenografts” value in assay [7] (setting [10]) is reported as “PARP cleavage”. Besides, in assay [7] (setting [10]), the “caspase-3 activation in xenografts” value is listed as “caspase-3 activation”. Moreover, the “CYCS promoter activity (luciferase)” value in assay [3] is recorded as “increased the CYCS promoter activity”. Further, the “levels of p-Drp1^S616” value in assay [4] is “increased the levels of p-Drp1^S616”. For the same compound, the figures for the CC expression entry in assay [8] and in assay [5] were “induced CC expression” and “Increased CC expression”, respectively. Also, in assay [8], the caspase-3 activity entry was “activated caspase-3 activity”. Also, in assay [8], the cell death entry is reported as “enhanced cell death”. Moreover, the PARP cleavage result in assay [5] (agent alone) is “only a modest increase”; in assay [5] (setting [9]), “PARP cleavage”. For the same compound, the “colony forming ability (CFA)” value in assay [6] (with DOC) and in assay [6] (without DOC) was “reduced the CFA” throughout.

Turning to `CCc1ccc(/C=C2/SC(=S)NC2=O)cc1` [c-Myc inhibitor, 10058-F4], the caspase-3 activation result in assay [1] (agent alone) is on record as “only a modest increase”; in assay [1] (setting [9]), “increased caspase-3 activation”. In addition, the “CC expression in xenografts” value is on record as “further upregulated” in assay [7] (setting [10]) and “induced CC expression” in assay [7] (setting [11]). Also, the “PARP cleavage in xenografts” value in assay [7] (setting [10]) is listed as “PARP cleavage”. In assay [7] (setting [10]), the “caspase-3 activation in xenografts” value was “caspase-3 activation”. In assay [3], the “CYCS promoter activity (luciferase)” value was “increased the CYCS promoter activity”. Moreover, the “levels of p-Drp1^S616” value in assay [4] is listed as “increased the levels of p-Drp1^S616”. The CC expression entry is given as “induced CC expression” in assay [8] and “Increased CC expression” in assay [5]. Besides, the caspase-3 activity entry in assay [8] is recorded as “activated caspase-3 activity”. In addition, in assay [8], the cell death entry was “enhanced cell death”. The PARP cleavage entry in assay [5] (agent alone) is recorded as “only a modest increase”; in assay [5] (setting [9]), “PARP cleavage”. Also, the “colony forming ability (CFA)” value in assay [6] (with DOC) and in assay [6] (without DOC) was “reduced the CFA” throughout.
